What was measured:
adenosine deaminase = assay: Adenosine deaminase assay in human liver S9 fractions; format: in vitro ADME; settings: 1 μM nucleoside, 1 mg/mL human liver S9, pH 7.4, with/without 1 mM NADPH, up to 2 hours, LC-MS
Source text: In the adenosine deaminase assays, 2′-fluoroadenosie was used as a positive control for the deaminase activity: […]

[1] = target: T1, human mitochondrial RNA polymerase POLRMT (Homo sapiens, UniProt O00411); assay: POLRMT primer extension (polymerase incorporation) assay; format: biochemical; settings: single NTP 100 μM or 1 mM, 37° C., 30 min, IEX-HPLC fluorescence
T1 construct: purchased Indigo Biosciences MV100-40
Source text: Purified exonuclease activity-deficient human mitochondrial DNA polymerase POLG was obtained from the lab of Prof. William Copeland (National Institute of Environmental Health Science, Durham, NC, USA). Human mitochondrial POLRMT was purchased from Indigo Biosciences (Cat #MV100-40). Atto-425-labelled DNA and RNA primers were synthesized in house; DNA templates were obtained from IDT.
The assays are designed for single NT addition on appropriate template/primer sets: • Atto-425 labeled primers allow for high sensitivity fluorescence detection with very low reaction volumes • Analytical IEX-HPLC with fluorescence detection for optimal resolution of primer-extended products—especially important in competition mixtures • Assays can be applied for the assessment of incorporation efficiency of novel chemistries.
Reaction conditions for the POLG incorporation assays were as follows: 100 nM DNA template, 100 nM 5′-Atto-425-labelled DNA primer, 40 units POLG, 100 μM or 1 mM NTP substrate in 20 mM Tris-HCl, pH 8.0, 2 mM β-mercaptoethanol, 0.1 mg/mL bovine serum albumin, 10 mM MgCl2. Reactions were incubated at 37° C. for 30 min. Reactions were quenched by heating the reaction mixture to 85° C. for 5 min. The reaction mixtures were diluted with water to a final primer concentration of approximately 2.5 nM and analysed by IEX-HPLC with an attached fluorescence detector (excitation wavelength: 436 nm, emission wavelength: 485 nm) and a Dionex BioLCDNAPac PA200 4×250 mm (8 μm particle size) column. […] The reaction mixtures were diluted with water to a final primer concentration of approximately 2.5 nM and analysed by IEX-HPLC as described above, except that the gradient was 35% to 40% buffer B in 16 min.
Recognition of 2′F—N6MeA NTPs by POLRMT and PolGamma: Incorporation of 2′F—N6MeA, RNA, and 2′-F-RNA NTP monomers were evaluated in a previously reported in vitro primer extension assays catalyzed by the human mitochondrial RNA polymerase POLRMT and human mitochondrial DNA polymerase PolGamma. […]

[2] = target: T2, human mitochondrial DNA polymerase POLG (Homo sapiens, UniProt P54098, D198A/E200A); assay: POLG (Pol-γ) primer extension (polymerase incorporation) assay; format: biochemical; settings: single NTP 100 μM or 1 mM, 37° C., 30 min, IEX-HPLC fluorescence
T2 construct: lab of Prof; William Copeland (National Institute of Environmental Health Science, Durham, NC, USA)
T2 sequence (P54098 26-1239 D198A/E200A limits assumed): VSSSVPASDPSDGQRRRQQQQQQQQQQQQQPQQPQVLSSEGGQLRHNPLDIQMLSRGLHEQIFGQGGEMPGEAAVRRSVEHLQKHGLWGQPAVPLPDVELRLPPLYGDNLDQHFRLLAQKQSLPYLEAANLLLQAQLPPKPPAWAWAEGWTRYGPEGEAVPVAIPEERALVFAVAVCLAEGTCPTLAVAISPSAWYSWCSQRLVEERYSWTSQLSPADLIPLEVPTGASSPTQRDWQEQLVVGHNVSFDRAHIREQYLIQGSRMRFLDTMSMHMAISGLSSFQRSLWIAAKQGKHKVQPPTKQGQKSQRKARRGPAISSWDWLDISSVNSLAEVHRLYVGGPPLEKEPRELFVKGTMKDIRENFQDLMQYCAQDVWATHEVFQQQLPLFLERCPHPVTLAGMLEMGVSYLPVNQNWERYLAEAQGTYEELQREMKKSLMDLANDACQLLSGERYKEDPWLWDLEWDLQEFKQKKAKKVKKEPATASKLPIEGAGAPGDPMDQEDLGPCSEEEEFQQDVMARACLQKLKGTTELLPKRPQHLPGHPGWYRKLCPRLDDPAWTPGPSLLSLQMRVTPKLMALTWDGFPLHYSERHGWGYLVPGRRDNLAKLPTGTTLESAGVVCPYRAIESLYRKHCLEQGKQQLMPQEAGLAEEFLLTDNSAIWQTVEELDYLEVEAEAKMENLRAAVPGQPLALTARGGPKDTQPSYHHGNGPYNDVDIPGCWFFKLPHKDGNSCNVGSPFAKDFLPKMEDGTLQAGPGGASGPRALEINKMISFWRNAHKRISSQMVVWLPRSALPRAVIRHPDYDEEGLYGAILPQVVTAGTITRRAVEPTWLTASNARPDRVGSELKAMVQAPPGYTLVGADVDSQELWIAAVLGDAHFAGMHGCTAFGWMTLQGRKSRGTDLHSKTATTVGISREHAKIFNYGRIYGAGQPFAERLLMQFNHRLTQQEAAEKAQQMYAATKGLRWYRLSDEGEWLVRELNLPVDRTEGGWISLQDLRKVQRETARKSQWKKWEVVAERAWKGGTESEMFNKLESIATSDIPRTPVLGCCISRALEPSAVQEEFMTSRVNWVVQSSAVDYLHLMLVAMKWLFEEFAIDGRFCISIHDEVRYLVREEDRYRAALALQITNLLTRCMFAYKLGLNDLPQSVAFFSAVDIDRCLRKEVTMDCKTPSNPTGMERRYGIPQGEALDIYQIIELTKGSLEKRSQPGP
Experimental: Purified exonuclease activity-deficient human mitochondrial DNA polymerase POLG was obtained from the lab of Prof. William Copeland (National Institute of Environmental Health Science, Durham, NC, USA). Human mitochondrial POLRMT was purchased from Indigo Biosciences (Cat #MV100-40).
Buffer A was 20 mM sodium phosphate, 15% ACN, pH 11; and buffer B was 20 mM sodium phosphate, 15% ACN, 1 M NaBr, pH 11. […] Briefly, a 5′-fluorescently labeled primer and template were incubated […], and the primer extension reaction was monitored via fluorescence detection ion-exchange high-performance liquid chromatography.

T1 sequence (O00411 42-1230): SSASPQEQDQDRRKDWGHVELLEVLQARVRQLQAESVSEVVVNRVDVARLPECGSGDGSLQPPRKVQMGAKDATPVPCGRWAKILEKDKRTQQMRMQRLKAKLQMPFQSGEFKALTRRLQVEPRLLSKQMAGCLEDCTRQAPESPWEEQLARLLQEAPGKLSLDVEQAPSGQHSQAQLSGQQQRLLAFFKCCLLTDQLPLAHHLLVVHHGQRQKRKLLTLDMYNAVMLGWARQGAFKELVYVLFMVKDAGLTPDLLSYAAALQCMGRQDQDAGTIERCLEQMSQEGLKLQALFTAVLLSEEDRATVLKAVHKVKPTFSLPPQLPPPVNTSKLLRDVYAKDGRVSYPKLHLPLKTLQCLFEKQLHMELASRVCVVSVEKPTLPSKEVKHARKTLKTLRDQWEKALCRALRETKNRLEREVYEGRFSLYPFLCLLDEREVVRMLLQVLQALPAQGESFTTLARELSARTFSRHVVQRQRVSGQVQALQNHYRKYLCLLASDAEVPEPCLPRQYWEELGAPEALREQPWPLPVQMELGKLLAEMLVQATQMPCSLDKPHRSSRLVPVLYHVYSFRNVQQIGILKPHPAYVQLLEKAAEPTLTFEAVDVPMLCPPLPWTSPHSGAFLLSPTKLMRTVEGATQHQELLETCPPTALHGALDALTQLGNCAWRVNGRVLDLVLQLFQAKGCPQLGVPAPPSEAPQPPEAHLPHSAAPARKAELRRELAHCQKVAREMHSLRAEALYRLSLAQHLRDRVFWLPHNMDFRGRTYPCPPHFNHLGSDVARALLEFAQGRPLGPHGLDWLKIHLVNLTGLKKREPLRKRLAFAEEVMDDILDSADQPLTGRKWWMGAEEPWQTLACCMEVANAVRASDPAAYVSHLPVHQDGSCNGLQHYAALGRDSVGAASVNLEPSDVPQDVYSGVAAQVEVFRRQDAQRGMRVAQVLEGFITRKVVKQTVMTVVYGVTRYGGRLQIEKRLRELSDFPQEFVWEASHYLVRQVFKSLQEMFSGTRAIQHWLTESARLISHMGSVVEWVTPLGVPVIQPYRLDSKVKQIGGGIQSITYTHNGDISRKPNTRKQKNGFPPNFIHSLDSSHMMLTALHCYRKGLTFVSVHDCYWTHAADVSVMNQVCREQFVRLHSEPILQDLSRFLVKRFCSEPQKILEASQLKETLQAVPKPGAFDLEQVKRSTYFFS

## Nc1ncnc2c1ncn2[C@@H]1O[C@H](CO)[C@H](O)C1F (stereo partly shown) [2′-fluoro-adenosine, reference compound]
Adenosine deaminase
  Deaminated metabolite (adenine to inosine conversion): formation of deaminated metabolite

## CNc1ncnc2c1ncn2[C@@H]1O[C@H](COP(=O)(O)OP(=O)(O)OP(=O)(O)O)[C@@H](O)[C@H]1F [2′Fluoro-N6Methyl-Atp triphosphate, ((2R,3R,4R,5R)-4-fluoro-3-hydroxy-5-(6-(methylamino)-9H-purin-9-yl)tetrahydrofuran-2-yl)methyl triphosphate]
[1]
  PolRMT Incorporation: Yes
[1]; listed as 2′F—N6MeA NTP
  PolRMT Incorporation: good substrate
[2]
  Pol-γ Incorporation: Yes
[2]; listed as 2′F—N6MeA NTP
  Pol-γ Incorporation: good substrate

## COC1C(O)[C@@H](CO)O[C@H]1n1cnc2c(NC(C)C)ncnc21 (stereo partly drawn) [Compound 45, (2R,5R)-2-(hydroxymethyl)-5-[6-(isopropylamino)purin-9-yl]-4-methoxy-tetrahydrofuran-3-ol]
Adenosine deaminase
  Deaminated metabolite (adenine to inosine conversion): no deaminated metabolites were observed

## Nc1ncnc2c1ncn2[C@@H]1O[C@H](COP(=O)(O)OP(=O)(O)OP(=O)(O)O)[C@@H](O)[C@H]1O [rATP, reference compound]
[1]
  PolRMT Incorporation: efficiently incorporated

Source: patent US20240116973A1, “MODIFIED OLIGONUCLEOTIDES” (ALNYLAM PHARMACEUTICALS, INC., priority 2021, published 2024)
